Literature values as cited in patent US20080175925A1, “Method and composition for the treatment of herpes virus” (priority 2007, published 2008).

Legend:
HSV-1 [1] = settings: guinea pig model
HSV-1 [2] = settings: in vitro
[3] = test system: Herpesvirus hominis genital strain MVC 70 (herpesvirus h simplex 0-2); settings: solution of 0.02% w/v
[4] = test system: Herpesvirus hominis oral stain SUE (herpesvirus h simplex-1); settings: solution of 0.02% w/v

In the case of `Nc1nc2c(ncn2COCCO)c(=O)[nH]1` [Acyclovir], the viral titers (HSV-1 [1]) is listed as “reduced viral titers” and the “lesion development, duration and severity scores” value (HSV-1 [1]; compared to vehicle control or acyclovir) is listed as “did not reduce lesion development, duration or severity”.
For `NC(CCC(=O)NC(CS)C(=O)NCC(=O)O)C(=O)O` (stereo not drawn) [GSH, 2-amino-5-{[2-[(carboxymethyl)amino]-1-(mercaptomethyl)-2-oxoethyl]amino}-5-oxopentanoic acid], the “inhibition of replication of HSV-1” value (HSV-1 [2]; addition of exogenous GSH) is listed as over 99% and the “intracellular GSH levels after virus challenge” value (HSV-1 [2]; addition of exogenous GSH to infected cells) is listed as “restore its intracellular levels almost up to those found in uninfected cells”.
For `[H]/N=C(\N/C(=N/[H])NCCCCCCNC(=N)NC(=N)Nc1ccc(Cl)cc1)Nc1ccc(Cl)cc1` [chlorhexidine], the “infectivity of HVH strain MVC 70 (HSV-2)” value [3] is listed as “reduced the infectivity” and the “infectivity of HVH strain SUE (HSV-1)” value [4] is listed as “reduced the infectivity”.
